Columns and labels:
[1] = Storage stability of sepiapterin polymorph forms, HPLC purity; format: physicochemical; set-up: Impurity RRT 1.06 (HPLC) / Impurity RRT 1.08 (HPLC) / Impurity RRT 1.17 (HPLC) / Impurity RRT 1.21 (HPLC) / Impurity RRT 1.25 (HPLC) / Impurity RRT 0.62 (HPLC) / Impurity RRT 0.89 (HPLC) / Impurity RRT 0.95 (HPLC) / Impurity RRT 0.60 (HPLC): unit not given here; conditions: for Purity of initial samples by HPLC: before storage; for Stability on storage as determined by HPLC, comparison of forms in words: storage up to 4 weeks at RT
Experimental: (§1) Form A and F samples were placed in chambers with silica gel to remove water (the relative humidity was measured to be ˜10% RH) at different temperatures. Form D samples were placed in chambers with water (relative humidity was estimated to be ˜100% RH) at different temperatures.
(§2) The HPLC purities and XRD patterns were obtained for each of Form A/F/D samples stored at various temperatures.
Samples of sepiapterin free base polymorph Forms D, F, and A were stored at room temperature (RT), 35° C., and 50° C. The samples were analyzed by HPLC at 1 week and 4 week intervals.

[2] = Storage stability of sepiapterin polymorph forms, form change by XRD; format: physicochemical
Experimental: as §1, §2

[3] = storage 1 week, 35° C., 100% RH
[4] = storage 1 week, 50° C., 100% RH
[5] = storage 4 weeks, 35° C., 100% RH
[6] = storage 4 weeks, 50° C., 100% RH
[7] = 35° C./10% RH, 1 w, listed as Polymorph F
[8] = 35° C./10% RH, 4 w, listed as Polymorph F
[9] = 50° C./10% RH, 1 w, listed as Polymorph F
[10] = 50° C./10% RH, 4 w, listed as Polymorph F
[11] = RT/10% RH, 1 w, listed as Polymorph F
[12] = RT/10% RH, 4 w, listed as Polymorph F
[13] = storage 4 weeks, 35° C., 10% RH
[14] = storage 4 weeks, 50° C., 10% RH

In the case of C[C@H](O)C(=O)C1=Nc2c(nc(N)[nH]c2=O)NC1 [Form D, sepiapterin], the “Impurity RRT 0.62 (HPLC)” value ([1]; 35° C./100% RH, 1 w) is reported as less than 0.05, the “Impurity RRT 0.95 (HPLC)” value ([1]; 35° C./100% RH, 1 w) is reported as 0.86 and the “Impurity RRT 1.08 (HPLC)” value ([1]; 35° C./100% RH, 1 w) is reported as 0.14. For the same compound, the “Impurity RRT 1.17 (HPLC)” value ([1]; 35° C./100% RH, 1 w) was 0.17, the “Sepiapterin RRT 1.00 (HPLC), amount of sepiapterin” value (“Sepiapterin RRT 1.00 (HPLC), amount” below) ([1]; 35° C./100% RH, 1 w) was 98.83% and the “Impurity RRT 0.62 (HPLC)” value ([1]; 35° C./100% RH, 4 w) was 0.09. For the same compound, the “Impurity RRT 0.95 (HPLC)” value ([1]; 35° C./100% RH, 4 w) was 1.04, the “Impurity RRT 1.08 (HPLC)” value ([1]; 35° C./100% RH, 4 w) was less than 0.05 and the “Impurity RRT 1.17 (HPLC)” value ([1]; 35° C./100% RH, 4 w) was 0.17. For the same compound, the “Sepiapterin RRT 1.00 (HPLC), amount” value ([1]; 35° C./100% RH, 4 w) was 98.70%, the “Impurity RRT 0.62 (HPLC)” value ([1]; 50° C./100% RH, 1 w) was 0.08 and the “Impurity RRT 0.95 (HPLC)” value ([1]; 50° C./100% RH, 1 w) was 1.05. The “Impurity RRT 1.08 (HPLC)” value ([1]; 50° C./100% RH, 1 w) was 0.26, the “Impurity RRT 1.17 (HPLC)” value ([1]; 50° C./100% RH, 1 w) was 0.16 and the “Sepiapterin RRT 1.00 (HPLC), amount” value ([1]; 50° C./100% RH, 1 w) was 98.45%. For the same compound, the “Impurity RRT 0.62 (HPLC)” value ([1]; 50° C./100% RH, 4 w) was 0.14, the “Impurity RRT 0.95 (HPLC)” value ([1]; 50° C./100% RH, 4 w) was 2.03 and the “Impurity RRT 1.08 (HPLC)” value ([1]; 50° C./100% RH, 4 w) was less than 0.05. The “Impurity RRT 1.17 (HPLC)” value ([1]; 50° C./100% RH, 4 w) was 0.18, the “Sepiapterin RRT 1.00 (HPLC), amount” value ([1]; 50° C./100% RH, 4 w) was 97.65% and the “Impurity RRT 1.08 (HPLC)” value ([1]; Initial) was less than 0.05. For the same compound, the “Impurity RRT 1.17 (HPLC)” value ([1]; Initial) was 0.17, the “Impurity RRT 0.62 (HPLC)” value ([1]; Initial, listed as Polymorph D) was less than 0.05 and the “Impurity RRT 0.95 (HPLC)” value ([1]; Initial, listed as Polymorph D) was 0.69. The “Sepiapterin RRT 1.00 (HPLC), amount” value ([1]; Initial, listed as Polymorph D) was 99.14%, the “Sepiapterin RRT 1.00 (HPLC), amount” value ([1]; Initial, listed as polymorph D) was 99.14% and the “Impurity RRT 0.62 (HPLC)” value ([1]; RT/100% RH, 1 w) was less than 0.05. For the same compound, the “Impurity RRT 0.95 (HPLC)” value ([1]; RT/100% RH, 1 w) was 0.83, the “Impurity RRT 1.08 (HPLC)” value ([1]; RT/100% RH, 1 w) was less than 0.05 and the “Impurity RRT 1.17 (HPLC)” value ([1]; RT/100% RH, 1 w) was 0.16. For the same compound, the “Sepiapterin RRT 1.00 (HPLC), amount” value ([1]; RT/100% RH, 1 w) was 99.01%, the “Impurity RRT 0.62 (HPLC)” value ([1]; RT/100% RH, 4 w) was 0.09 and the “Impurity RRT 0.95 (HPLC)” value ([1]; RT/100% RH, 4 w) was 0.81. For the same compound, the “Impurity RRT 1.08 (HPLC)” value ([1]; RT/100% RH, 4 w) was less than 0.05, the “Impurity RRT 1.17 (HPLC)” value ([1]; RT/100% RH, 4 w) was 0.17 and the “Sepiapterin RRT 1.00 (HPLC), amount” value ([1]; RT/100% RH, 4 w) was 98.92%. For the same compound, the “Purity of initial samples by HPLC” value [1] was 99.1 area %, the “% of Initial” value [1, 3] was 99.7% and the “Purity (area %)” value [1, 3] was 98.8 area %. For the same compound, the “% of Initial” value [1, 4] was 99.3%, the “Purity (area %)” value [1, 4] was 98.5 area % and the “% of Initial” value ([1]; storage 1 week, RT, 100% RH) was 99.9%. For the same compound, the “Purity (area %)” value ([1]; storage 1 week, RT, 100% RH) was 99.0 area %, the “% of Initial” value [1, 5] was 99.6% and the “Purity (area %)” value [1, 5] was 98.7 area %. The “% of Initial” value [1, 6] was 98.5%, the “Purity (area %)” value [1, 6] was 97.7 area % and the “% of Initial” value ([1]; storage 4 weeks, RT, 100% RH) was 99.8%. For the same compound, the “Purity (area %)” value ([1]; storage 4 weeks, RT, 100% RH) was 98.9 area %, the “Stability on storage as determined by HPLC, comparison of forms in words” value ([1]; 35° C., 50° C., listed as polymorph D) was “significantly greater stability than polymorph A” and the Form change [2, 3] was “No”. For the same compound, the Form change [2, 4] was “No”, the Form change ([2]; storage 1 week, RT, 100% RH) was “No” and the Form change [2, 5] was “No”. The Form change [2, 6] was “No” and the Form change ([2]; storage 4 weeks, RT, 100% RH) was “No”.
For C[C@H](O)C(=O)C1=Nc2c(nc(N)[nH]c2=O)NC1 [Form F, sepiapterin], the “Impurity RRT 0.60 (HPLC)” value ([1]; 35° C./10% RH, 1 w) was less than 0.05, the “Impurity RRT 0.95 (HPLC)” value [1, 7] was 0.35 and the “Impurity RRT 1.08 (HPLC)” value [1, 7] was 0.06. For the same compound, the “Impurity RRT 1.17 (HPLC)” value [1, 7] was 0.15, the “Sepiapterin RRT 1.00 (HPLC), amount” value [1, 7] was 99.43% and the “Impurity RRT 0.60 (HPLC)” value ([1]; 35° C./10% RH, 4 w) was less than 0.05. The “Impurity RRT 1.08 (HPLC)” value ([1]; 35° C./10% RH, 4 w) was less than 0.05, the “Impurity RRT 0.95 (HPLC)” value [1, 8] was 0.42 and the “Impurity RRT 1.17 (HPLC)” value [1, 8] was 0.15. The “Sepiapterin RRT 1.00 (HPLC), amount” value [1, 8] was 99.43%, the “Impurity RRT 0.60 (HPLC)” value ([1]; 50° C./10% RH, 1 w) was less than 0.05 and the “Impurity RRT 0.95 (HPLC)” value [1, 9] was 0.58. The “Impurity RRT 1.08 (HPLC)” value [1, 9] was 0.11, the “Impurity RRT 1.17 (HPLC)” value [1, 9] was 0.15 and the “Sepiapterin RRT 1.00 (HPLC), amount” value [1, 9] was 99.15%. The “Impurity RRT 0.60 (HPLC)” value ([1]; 50° C./10% RH, 4 w) was 0.12, the “Impurity RRT 1.17 (HPLC)” value ([1]; 50° C./10% RH, 4 w) was 0.17 and the “Impurity RRT 0.95 (HPLC)” value [1, 10] was 0.86. For the same compound, the “Impurity RRT 1.08 (HPLC)” value [1, 10] was less than 0.05, the “Sepiapterin RRT 1.00 (HPLC), amount” value [1, 10] was 98.85% and the “Sepiapterin RRT 1.00 (HPLC), amount” value ([1]; 50° C./10% RH, 4 w, listed as polymorph F) was 98.85%. The “Impurity RRT 0.60 (HPLC)” value ([1]; Initial) was less than 0.05, the “Impurity RRT 1.08 (HPLC)” value ([1]; Initial) was less than 0.05 and the “Impurity RRT 1.17 (HPLC)” value ([1]; Initial) was 0.17. The “Impurity RRT 0.95 (HPLC)” value ([1]; Initial, listed as Polymorph F) was 0.09, the “Sepiapterin RRT 1.00 (HPLC), amount” value ([1]; Initial, listed as Polymorph F) was 99.74% and the “Sepiapterin RRT 1.00 (HPLC), amount” value ([1]; Initial, listed as polymorph F) was 99.74%. For the same compound, the “Impurity RRT 0.60 (HPLC)” value ([1]; RT/10% RH, 1 w) was less than 0.05, the “Impurity RRT 1.17 (HPLC)” value ([1]; RT/10% RH, 1 w) was 0.16 and the “Impurity RRT 0.95 (HPLC)” value [1, 11] was 0.29. The “Impurity RRT 1.08 (HPLC)” value [1, 11] was 0.14, the “Sepiapterin RRT 1.00 (HPLC), amount” value [1, 11] was 99.42% and the “Impurity RRT 0.60 (HPLC)” value ([1]; RT/10% RH, 4 w) was less than 0.05. The “Impurity RRT 1.08 (HPLC)” value ([1]; RT/10% RH, 4 w) was less than 0.05, the “Impurity RRT 1.17 (HPLC)” value ([1]; RT/10% RH, 4 w) was 0.16 and the “Impurity RRT 0.95 (HPLC)” value [1, 12] was 0.30. The “Sepiapterin RRT 1.00 (HPLC), amount” value [1, 12] was 99.54%, the “Purity of initial samples by HPLC” value [1] was 99.7 area % and the “% of Initial” value ([1]; storage 1 week, 35° C., 10% RH) was 99.7%. The “Purity (area %)” value ([1]; storage 1 week, 35° C., 10% RH) was 99.4 area %, the “% of Initial” value ([1]; storage 1 week, 50° C., 10% RH) was 99.4% and the “Purity (area %)” value ([1]; storage 1 week, 50° C., 10% RH) was 99.2 area %. For the same compound, the “% of Initial” value ([1]; storage 1 week, RT, 10% RH) was 99.7%, the “Purity (area %)” value ([1]; storage 1 week, RT, 10% RH) was 99.4 area % and the “% of Initial” value [1, 13] was 99.7%. The “Purity (area %)” value [1, 13] was 99.4 area %, the “% of Initial” value [1, 14] was 99.1% and the “Purity (area %)” value [1, 14] was 98.9 area %. The “% of Initial” value ([1]; storage 4 weeks, RT, 10% RH) was 99.8%, the “Purity (area %)” value ([1]; storage 4 weeks, RT, 10% RH) was 99.5 area % and the “Stability on storage as determined by HPLC, comparison of forms in words” value ([1]; 35° C., 50° C., listed as polymorph F) was “significantly greater stability than polymorph A”. For the same compound, the Form change ([2]; storage 1 week, 35° C., 10% RH) was “No”, the Form change ([2]; storage 1 week, 50° C., 10% RH) was “No” and the Form change ([2]; storage 1 week, RT, 10% RH) was “No”. The Form change [2, 13] was “No”, the Form change [2, 14] was “No” and the Form change ([2]; storage 4 weeks, RT, 10% RH) was “No”.

— patent publication US12325706B2, “Polymorphic form of sepiapterin” (PTC Therapeutics MP, Inc., priority 2016, dated 2025)
